The source of these data is US20080234266A1, “Squaric Acid Derivatives II” (priority 2005, published 2008).

A word on the IC50: it is the midpoint of a concentration-inhibition curve. Low readings indicate inhibition by little substance, high ones a need for much substance.

This assay addresses T1, CHK1 kinase (Homo sapiens, UniProt O14757).
T1 construct: glutathione S-transferase (GST); made in house; host or cells: Sf21 insect cells (S. frugiperda), baculovirus
T1 sequence (O14757 1-476): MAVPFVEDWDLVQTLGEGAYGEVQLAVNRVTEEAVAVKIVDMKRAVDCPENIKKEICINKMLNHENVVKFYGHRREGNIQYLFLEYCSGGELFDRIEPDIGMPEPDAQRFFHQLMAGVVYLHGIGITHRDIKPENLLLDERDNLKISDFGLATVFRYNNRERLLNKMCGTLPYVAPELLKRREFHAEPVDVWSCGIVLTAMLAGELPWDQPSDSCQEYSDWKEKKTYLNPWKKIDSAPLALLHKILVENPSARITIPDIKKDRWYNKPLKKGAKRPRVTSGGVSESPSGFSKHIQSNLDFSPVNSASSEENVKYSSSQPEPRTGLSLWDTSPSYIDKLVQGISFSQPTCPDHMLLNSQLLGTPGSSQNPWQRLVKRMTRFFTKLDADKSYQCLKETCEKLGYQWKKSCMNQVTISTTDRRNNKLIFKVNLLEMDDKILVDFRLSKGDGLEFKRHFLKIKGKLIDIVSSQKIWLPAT
The assay is described as follows: Flashplate method (CHK1), measurement of the CHK1 kinase activity. Type of assay: biochemical. As to conditions: class symbols; 'Affinity to receptors'. Here is the method: CHK1 kinase is expressed for the purposes of protein production in insect cells (Sf21; S. frugiperda) and subsequent purification by affinity chromatography as fusion protein with glutathione S-transferase in a baculovirus expression vector. The cultivation, infection and digestion of the cells as well as the purification of the fusion protein by column chromatography are carried out in accordance with manufacturer-oriented generic working instructions.
The kinase activity is measured using various available measurement systems. In the scintillation proximity method (Sorg et al., J. of. Biomolecular Screening, 2002, 7, 11-19), the flashplate method or the filter binding test, the radioactive phosphorylation of a protein or peptide as substrate is measured using radioactively labelled ATP (γ^32P-ATP, (γ^33P-ATP). In the case of the presence of an inhibitory compound, a reduced radioactive signal, or none at all, can be detected. Furthermore, homogeneous time-resolved fluorescence resonance energy transfer (HTR-FRET) and fluorescence polarisation (FP) technologies are useful as assay methods (Sills et al., J. of Biomolecular Screening, 2002, 191-214).
The test plates used are 384-well streptavidin-coated Flashplates Plus® from Perkin Elmer (Cat.No. SMP410A001PK). The assay plate is equilibrated with 75 μl of assay buffer per well 30 min before commencement of the experiment. The buffer is sucked out before commencement of the experiment, and the components of the kinase reaction described below are pipetted onto the plate.
CHK1 kinase, a biotinylated substrate peptide (for example CHKtide: […]), is incubated with radioactively labelled ATP in the presence and absence of test substances at 30° Celsius and a total volume of 50 μl. The reaction is terminated using 25 μl of a 0.2 M EDTA solution. After incubation for 30 min at room temperature, the supernatants are filtered off with suction, and the wells are washed three times with 100 μl of 0.9% NaCl solution each time. The measurement of the bound radioactivity is carried out by means of a scintillation measuring instrument (Topcount NXT, Perkin-Elmer).
The full value used is the inhibitor-free kinase reaction. This should be approximately in the range 3000-4000 cpm. The pharmacological zero value used is staurosporin in a final concentration of 0.1 μM. The inhibitory values (IC50) are determined using the program RS1_MTS ( ).
Kinase reaction conditions per well:
0.15 μg of CHKtide ([…])
50 μl total volume (1-fold assay buffer reaction conditions)
Solutions used: • assay buffer:
0.1 mM Titriplex VI (EGTA
10 mM magnesium acetate 0.1% mercaptoethanol
pH=7.5 (to be set using hydrochloric acid) Bovine serum albumin (final concentration 0.1%) is not added until just before use. • stop solution:
0.2 M TitriplexIII (EDTA)
• γ^33P-ATP (Perkin-Elmer) • CHK1 kinase preparations: specific activity>50 U/mg • CHKtide solution: biotinylated peptide substrate (Biotrend) stored as stock solution (concentration 0.15 mg/ml).

In turn, `CN(Cc1cccc(O)c1)c1c(Nc2ccc3[nH]cnc3c2)c(=O)c1=O` [Compound A38, 3-(1H-benzimidazol-5-ylamino)-4-[(3-hydroxybenzyl)methylamino]cyclobut-3-ene-1,2-dione] displayed an IC50 of less than 1 µM.
Compound `O=c1c(NCc2cccc(O)c2)c(Nc2ccc3[nH]cnc3c2)c1=O` [Compound A1, 3-(1H-benzimidazol-5-ylamino)-4-(3-hydroxybenzylamino)cyclobut-3-ene-1,2-dione] gave an IC50 of less than 0.1 µM.
Consider `Cc1nc2cc(Nc3c(NCc4cccc(O)c4)c(=O)c3=O)ccc2[nH]1` [Compound A89, 3-(3-hydroxybenzylamino)-4-(2-methyl-1H-benzimidazol-5-ylamino)cyclobut-3-ene-1,2-dione], for which the IC50 was greater than 1 µM.
`CCN(CC)CCn1cnc2ccc(Nc3c(N[C@H](C)c4cccc(O)c4)c(=O)c3=O)cc21` [Compound A66, 3-[3-(2-diethylaminoethyl)-3H-benzimidazol-5-ylamino]-4-[(R)-1-(3-hydroxyphenyl)ethyl-amino]cyclobut-3-ene-1,2-dione] registered an IC50 greater than 1 µM.
Then `O=c1c(NCCc2ccccc2O)c(Nc2ccc3[nH]cnc3c2)c1=O` [Compound A149, 3-(1H-benzimidazol-5-ylamino)-4-[2-(2-hydroxyphenyl)ethylamino]cyclobut-3-ene-1,2-dione], with greater than 1 µM; and `Cc1cc2cc(Nc3c(NCc4cccc(O)c4)c(=O)c3=O)ccc2[nH]1` [Compound A39, 3-(2-methyl-1H-indol-5-ylamino)-4-(3-hydroxybenzylamino)cyclobut-3-ene-1,2-dione], with greater than 1 µM; and `CCOC(=O)CC(Nc1c(Nc2ccc3[nH]cnc3c2)c(=O)c1=O)c1cccc(O)c1` (stereo not shown) [Compound A100, ethyl 3-[2-(1H-benzimidazol-5-ylamino)-3,4-dioxocyclobut-1-enylamino]-3-(3-hydroxy-phenyl)propionate], with greater than 1 µM.
Turning to `CC(Nc1c(Nc2ccc3[nH]cnc3c2)c(=O)c1=O)c1ccc2[nH]ccc2c1` (stereo not shown) [Compound A75, 3-(1H-benzimidazol-5-ylamino)-4-[1-(1H-indol-5-yl)ethylamino]cyclobut-3-ene-1,2-dione], the IC50 is greater than 1 µM.
Then `CC(=O)Nc1ccc(CNc2c(Nc3ccc4[nH]cnc4c3)c(=O)c2=O)cc1` [Compound A157, 3-(1H-benzimidazol-5-ylamino)-4-(4-acetamidobenzylamino)cyclobut-3-ene-1,2-dione], with greater than 1 µM.
Then `O=c1c(NCc2cccc(O)c2)c(Nc2ccc3[nH]c(S)nc3c2)c1=O` [Compound A40, 3-(2-mercapto-1H-benzimidazol-5-ylamino)-4-(3-hydroxybenzylamino)cyclobut-3-ene-1,2-dione], with greater than 1 µM.
The figure for `O=c1[nH]c2cc(CNc3c(Nc4ccc5[nH]cnc5c4)c(=O)c3=O)ccc2o1` [Compound A160, 3-(1H-benzimidazol-5-ylamino)-4-[(2-oxo-2,3-dihydrobenzoxazol-5-ylmethyl)amino]-cyclobut-3-ene-1,2-dione] is greater than 1 µM; for `CC(=O)Nc1cccc(CNc2c(Nc3ccc4[nH]cnc4c3)c(=O)c2=O)c1` [Compound A45, 3-(1H-benzimidazol-5-ylamino)-4-(3-acetamidobenzylamino)cyclobut-3-ene-1,2-dione] it is greater than 1 µM; for `O=c1c(NCc2ccc3c(c2)OCO3)c(Nc2ccc3[nH]cnc3c2)c1=O` [Compound A123, 3-[(benzo[1,3]dioxol-5-ylmethyl)amino]-4-(1H-benzimidazol-5-ylamino)cyclobut-3-ene-1,2-dione] it is greater than 1 µM.
“3-(3-hydroxybenzylamino)-4-(5-methyl-imidazo[1,2-a]pyridin-6-ylamino)cyclobut-3-ene-1,2-dione [Compound A56]” returned an IC50 of less than 1 µM.
The figure for `O=c1c(NCc2ccc3cc[nH]c3c2)c(Nc2ccc3[nH]cnc3c2)c1=O` [Compound A137, 3-(1H-benzimidazol-5-ylamino)-4-[(1H-indol-6-ylmethyl)amino]cyclobut-3-ene-1,2-dione] is greater than 1 µM; for `COc1ccccc1CCNc1c(Nc2ccc3[nH]cnc3c2)c(=O)c1=O` [Compound A143, 3-(1H-benzimidazol-5-ylamino)-4-[2-(2-methoxyphenyl)ethylamino]cyclobut-3-ene-1,2-dione] it is greater than 1 µM.
Then `NC(=O)c1ccc(CNc2c(Nc3ccc4[nH]cnc4c3)c(=O)c2=O)cc1` [Compound A159, 3-(1H-benzimidazol-5-ylamino)-4-(4-amino-carbonylbenzylamino)cyclobut-3-ene-1,2-dione], with greater than 1 µM.
Then `O=c1c(NCc2cccc(O)c2)c(Nc2ccc3[nH]ccc3c2)c1=O` [Compound A29, 3-(1H-indol-5-ylamino)-4-(3-hydroxybenzyl-amino)cyclobut-3-ene-1,2-dione], with greater than 1 µM; and `Cc1nc2cc(Nc3c(NCc4cccc(O)c4)c(=O)c3=O)ccc2s1` [Compound A98, 3-(3-hydroxybenzylamino)-4-(2-methylbenzo-thiazol-5-ylamino)cyclobut-3-ene-1,2-dione], with greater than 1 µM; and `O=c1c(NCc2cccc(O)c2Cl)c(Nc2ccc3[nH]cnc3c2)c1=O` [Compound A86, 3-(1H-benzimidazol-5-ylamino)-4-(2-chloro-3-hydroxybenzylamino)cyclobut-3-ene-1,2-dione], with greater than 1 µM.
Turning to `O=c1cnc2ccc(CNc3c(Nc4ccc5[nH]cnc5c4)c(=O)c3=O)cc2[nH]1` [Compound A163, 3-(1H-benzimidazol-5-ylamino)-4-[(3-oxo-3,4-dihydroquinoxalin-6-ylmethyl)amino]cyclobut-3-ene-1,2-dione], the IC50 was greater than 1 µM.
Then `O=c1c(NCCc2ccc(O)cc2)c(Nc2ccc3[nH]cnc3c2)c1=O` [Compound A140, 3-(1H-benzimidazol-5-ylamino)-4-[2-(4-hydroxyphenyl)ethylamino]cyclobut-3-ene-1,2-dione], with greater than 1 µM; and `COC(=O)CC(Nc1c(Nc2ccc3[nH]cnc3c2)c(=O)c1=O)c1cccc(O)c1` (stereo not shown) [Compound A101, methyl 3-[2-(1H-benzimidazol-5-ylamino)-3,4-dioxocyclobut-1-enylamino]-3-(3-hydroxy-phenyl)propionate], with less than 1 µM; and `O=c1c(NCc2cccc(O)c2)c(Nc2cc3nc[nH]c3cc2Cl)c1=O` [Compound A12, 3-(1H-benzimidazol-6-chloro-5-ylamino)-4-(3-hydroxybenzylamino)cyclobut-3-ene-1,2-dione], with greater than 1 µM.
Compound `CCOC(=O)c1cc2cc(Nc3c(NCc4cccc(O)c4)c(=O)c3=O)ccc2[nH]1` [Compound A81, 3-(2-ethoxycarbonyl-1H-indol-5-ylamino)-4-(3-hydroxybenzylamino)cyclobut-3-ene-1,2-dione] came in with an IC50 greater than 1 µM.
The figure for `CN1CCN(c2ccc(CNc3c(Nc4ccc5[nH]cnc5c4)c(=O)c3=O)cc2)CC1` [Compound A141, 3-(1H-benzimidazol-5-ylamino)-4-[4-(4-methylpiperazin-1-yl)benzylamino]cyclobut-3-ene-1,2-dione] is greater than 1 µM.
The compound `NC(=O)c1cccc(CNc2c(Nc3ccc4[nH]cnc4c3)c(=O)c2=O)c1` [Compound A95, 3-(1H-benzimidazol-5-ylamino)-4-(3-amino-carbonylbenzylamino)cyclobut-3-ene-1,2-dione] gave an IC50 greater than 1 µM.
Then `O=c1c(NCc2cccc(O)c2)c(Nc2cc3nc[nH]c3cc2F)c1=O` [Compound A129, 3-(6-fluoro-1H-benzimidazol-5-ylamino)-4-(3-hydroxybenzylamino)cyclobut-3-ene-1,2-dione], with greater than 1 µM.
